Several values for one entry are separate records, joined by “and”; a condition that tells them apart may be missing. Identical values can stand only once.
How the values were obtained:
[1] = mn = molality of the nth substance listed, in mol/kg; details: 101 kPa, Liquid
[2] = 101 kPa, Liquid

CCCCn1cc[n+](C)c1.[Br-] [1-butyl-3-methylimidazolium bromide] + C[S+](C)[O-]
[1]
Details | mass density [kg/m3]
293.15 K, m1 = 0.00417 | 1100.42
293.15 K, m1 = 0.00643 | 1100.53
293.15 K, m1 = 0.00951 | 1100.68
293.15 K, m1 = 0.01236 | 1100.82
293.15 K, m1 = 0.015 | 1100.95
293.15 K, m1 = 0.01784 | 1101.09
293.15 K, m1 = 0.02066 | 1101.23
293.15 K, m1 = 0.02307 | 1101.35
293.15 K, m1 = 0.02628 | 1101.51
293.15 K, m1 = 0.02848 | 1101.62
303.15 K, m1 = 0.00497 | 1090.6
303.15 K, m1 = 0.00823 | 1090.76
303.15 K, m1 = 0.01126 | 1090.91
303.15 K, m1 = 0.01409 | 1091.05
303.15 K, m1 = 0.01689 | 1091.19
303.15 K, m1 = 0.02008 | 1091.35
303.15 K, m1 = 0.02326 | 1091.51
303.15 K, m1 = 0.02642 | 1091.67
303.15 K, m1 = 0.02917 | 1091.82
303.15 K, m1 = 0.03153 | 1091.94
308.15 K, m1 = 0.00514 | 1085.66
308.15 K, m1 = 0.00817 | 1085.81
308.15 K, m1 = 0.01139 | 1085.97
308.15 K, m1 = 0.01418 | 1086.11
308.15 K, m1 = 0.01696 | 1086.25
308.15 K, m1 = 0.01992 | 1086.41
308.15 K, m1 = 0.02347 | 1086.59
308.15 K, m1 = 0.0264 | 1086.74
308.15 K, m1 = 0.02914 | 1086.88
308.15 K, m1 = 0.03167 | 1087.01
313.15 K, m1 = 0.00489 | 1080.7
313.15 K, m1 = 0.00769 | 1080.83
313.15 K, m1 = 0.01069 | 1080.98
313.15 K, m1 = 0.01325 | 1081.11
313.15 K, m1 = 0.01542 | 1081.23
313.15 K, m1 = 0.01934 | 1081.43
313.15 K, m1 = 0.02264 | 1081.6
313.15 K, m1 = 0.02575 | 1081.76
313.15 K, m1 = 0.02845 | 1081.9
313.15 K, m1 = 0.03154 | 1082.06

CCCCCCCCCCn1cc[n+](C)c1.[Br-] [1-decyl-3-methylimidazolium bromide] + C[S+](C)[O-]
[1]
Details | mass density [kg/m3]
293.15 K, m1 = 0.00402 | 1100.27
293.15 K, m1 = 0.00649 | 1100.3
293.15 K, m1 = 0.00933 | 1100.34
293.15 K, m1 = 0.01163 | 1100.38
293.15 K, m1 = 0.0141 | 1100.41
293.15 K, m1 = 0.0167 | 1100.45
293.15 K, m1 = 0.01877 | 1100.49
293.15 K, m1 = 0.02117 | 1100.53
293.15 K, m1 = 0.02341 | 1100.56
293.15 K, m1 = 0.02766 | 1100.63
303.15 K, m1 = 0.00542 | 1090.45
303.15 K, m1 = 0.00729 | 1090.48
303.15 K, m1 = 0.00969 | 1090.52
303.15 K, m1 = 0.01151 | 1090.55
303.15 K, m1 = 0.01339 | 1090.58
303.15 K, m1 = 0.01545 | 1090.61
303.15 K, m1 = 0.01741 | 1090.65
303.15 K, m1 = 0.01809 | 1090.66
303.15 K, m1 = 0.01996 | 1090.69
308.15 K, m1 = 0.00501 | 1085.49
308.15 K, m1 = 0.00676 | 1085.52
308.15 K, m1 = 0.01153 | 1085.59
308.15 K, m1 = 0.01415 | 1085.64
308.15 K, m1 = 0.01624 | 1085.68
308.15 K, m1 = 0.0184 | 1085.72
308.15 K, m1 = 0.02101 | 1085.76
308.15 K, m1 = 0.0233 | 1085.8
313.15 K, m1 = 0.00484 | 1080.52
313.15 K, m1 = 0.0071 | 1080.56
313.15 K, m1 = 0.00963 | 1080.6
313.15 K, m1 = 0.01229 | 1080.65
313.15 K, m1 = 0.01489 | 1080.69
313.15 K, m1 = 0.01739 | 1080.74
313.15 K, m1 = 0.0195 | 1080.78
313.15 K, m1 = 0.02205 | 1080.82
313.15 K, m1 = 0.02449 | 1080.87

CCCCCCCCCCCCn1cc[n+](C)c1.[Br-] [1-dodecyl-3-methylimidazolium bromide] + C[S+](C)[O-]
[1]
Details | mass density [kg/m3]
293.15 K, m1 = 0.00397 | 1100.23
293.15 K, m1 = 0.00623 | 1100.24
293.15 K, m1 = 0.00818 | 1100.25
293.15 K, m1 = 0.01037 | 1100.26
293.15 K, m1 = 0.01216 | 1100.26
293.15 K, m1 = 0.01421 | 1100.27
293.15 K, m1 = 0.01656 | 1100.28
293.15 K, m1 = 0.01857 | 1100.29
293.15 K, m1 = 0.02122 | 1100.3
293.15 K, m1 = 0.02403 | 1100.31
303.15 K, m1 = 0.00371 | 1090.4
303.15 K, m1 = 0.00614 | 1090.4
303.15 K, m1 = 0.00792 | 1090.41
303.15 K, m1 = 0.00994 | 1090.42
303.15 K, m1 = 0.0118 | 1090.43
303.15 K, m1 = 0.01399 | 1090.44
303.15 K, m1 = 0.01604 | 1090.45
303.15 K, m1 = 0.01817 | 1090.46
303.15 K, m1 = 0.01986 | 1090.47
303.15 K, m1 = 0.02211 | 1090.48
308.15 K, m1 = 0.00436 | 1085.43
308.15 K, m1 = 0.00683 | 1085.43
308.15 K, m1 = 0.00903 | 1085.45
308.15 K, m1 = 0.01149 | 1085.46
308.15 K, m1 = 0.01349 | 1085.47
308.15 K, m1 = 0.01606 | 1085.48
308.15 K, m1 = 0.01812 | 1085.49
308.15 K, m1 = 0.02147 | 1085.51
308.15 K, m1 = 0.02348 | 1085.52
308.15 K, m1 = 0.02922 | 1085.55
313.15 K, m1 = 0.00453 | 1080.48
313.15 K, m1 = 0.00685 | 1080.5
313.15 K, m1 = 0.00907 | 1080.51
313.15 K, m1 = 0.01123 | 1080.52
313.15 K, m1 = 0.01315 | 1080.53
313.15 K, m1 = 0.01625 | 1080.55
313.15 K, m1 = 0.01812 | 1080.56
313.15 K, m1 = 0.02054 | 1080.57
313.15 K, m1 = 0.02269 | 1080.59

CCCCCCCCn1cc[n+](C)c1.[Br-] [1-methyl-3-octylimidazolium bromide] + C[S+](C)[O-]
[1]
Details | mass density [kg/m3]
293.15 K, m1 = 0.00222 | 1100.28
293.15 K, m1 = 0.00411 | 1100.33
293.15 K, m1 = 0.00639 | 1100.39
293.15 K, m1 = 0.00868 | 1100.45
293.15 K, m1 = 0.01098 | 1100.51
293.15 K, m1 = 0.01287 | 1100.56
293.15 K, m1 = 0.0156 | 1100.63
293.15 K, m1 = 0.01754 | 1100.68
293.15 K, m1 = 0.01986 | 1100.74
293.15 K, m1 = 0.0222 | 1100.8
303.15 K, m1 = 0.00254 | 1090.41
303.15 K, m1 = 0.00588 | 1090.5
303.15 K, m1 = 0.00888 | 1090.58
303.15 K, m1 = 0.01151 | 1090.65
303.15 K, m1 = 0.01491 | 1090.74
303.15 K, m1 = 0.01758 | 1090.81
303.15 K, m1 = 0.02064 | 1090.89
303.15 K, m1 = 0.02333 | 1090.96
303.15 K, m1 = 0.02681 | 1091.05
303.15 K, m1 = 0.03031 | 1091.14
308.15 K, m1 = 0.00216 | 1085.43
308.15 K, m1 = 0.00471 | 1085.5
308.15 K, m1 = 0.00692 | 1085.56
308.15 K, m1 = 0.00913 | 1085.62
308.15 K, m1 = 0.01398 | 1085.75
308.15 K, m1 = 0.01624 | 1085.81
308.15 K, m1 = 0.01888 | 1085.88
308.15 K, m1 = 0.02155 | 1085.95
308.15 K, m1 = 0.02348 | 1086
308.15 K, m1 = 0.02616 | 1086.07
313.15 K, m1 = 0.00623 | 1080.57
313.15 K, m1 = 0.01004 | 1080.67
313.15 K, m1 = 0.01351 | 1080.76
313.15 K, m1 = 0.01667 | 1080.84
313.15 K, m1 = 0.01987 | 1080.92
313.15 K, m1 = 0.02275 | 1080.99
313.15 K, m1 = 0.02686 | 1081.09
313.15 K, m1 = 0.02946 | 1081.15
313.15 K, m1 = 0.03287 | 1081.23
313.15 K, m1 = 0.03631 | 1081.31

C[S+](C)[O-] [dimethyl sulfoxide]
[2]
Details | mass density
293.15 K | 1100.22 kg/m3
303.15 K | 1090.37 kg/m3 [middle of 4 runs]
308.15 K | 1085.41 kg/m3 and 1085.42 kg/m3
313.15 K | 1080.45 kg/m3 and 1080.43 kg/m3 and 1080.47 kg/m3

C[S+](C)[O-] [dimethyl sulfoxide] + CCCCCCCCCCCCn1cc[n+](C)c1.[Br-]
[1], m2 = 0
Details | mass density [kg/m3]
293.15 K | 1100.22
303.15 K | 1090.38
308.15 K | 1085.41
313.15 K | 1080.47

C[S+](C)[O-] [dimethyl sulfoxide] + CCCCCCCCCCn1cc[n+](C)c1.[Br-]
[1], m2 = 0
Details | mass density [kg/m3]
293.15 K | 1100.22
303.15 K | 1090.37
308.15 K | 1085.42
313.15 K | 1080.45

C[S+](C)[O-] [dimethyl sulfoxide] + CCCCCCCCn1cc[n+](C)c1.[Br-]
[1], m2 = 0
Details | mass density [kg/m3]
293.15 K | 1100.22
303.15 K | 1090.34
308.15 K | 1085.41
313.15 K | 1080.43

C[S+](C)[O-] [dimethyl sulfoxide] + CCCCn1cc[n+](C)c1.[Br-]
[1], m2 = 0
Details | mass density [kg/m3]
293.15 K | 1100.22
303.15 K | 1090.36
308.15 K | 1085.41
313.15 K | 1080.45

From the NIST ThermoML archive (doi:10.1021/je300017m)
